From US10738056B2 (Aduro BioTech, Inc., priority 2017, dated 2020)

What was measured:
[1] = biological target: Human cGAS amino acids 155-522 (Homo sapiens (Human), UniProt Q8N884); assay: cGAS biochemical activity assay (ATP remaining, Kinase-Glo Max luminescence); details: human cGAS 155-522, ATP remaining (Kinase-Glo Max); read-out: cGAS IC50
[2] = tested on: cGAS/STING pathway in THP1 cells; assay: THP1 cell-based cGAS/STING pathway activity assay (IRF-3-linked luciferase reporter); details: Homo sapiens, THP-1
In short: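 THP1 cells carrying an IRF-3-driven luciferase reporter were read across a range of compound concentrations, and IC50 values were derived from these concentration responses; the assay upper limit was 100 μM.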

[3] = tested on: RANTES/CCL5 secretion by Trex1-KO BMM; assay: Inhibition of RANTES/CCL5 secretion by Trex1-KO bone marrow-derived macrophages; format: cell-based, mice; set-up: key to BMM IC50 R (RANTES): A: an IC50 value less than 5 μM; B: an IC50 value between 5 and 20 μM; where an IC50 value could not be calculated from the data; details: RANTES secretion; for IC50: Mus musculus, Macrophage, read-out: BMM IC50 R (RANTES)
Procedure: (§1) A cellular assay can be used to asses the compounds of the invention for their ability to inhibit cytokine production. Bone marrow macrophages harvested from mice can be used to determine response as a function of compound concentration.
(§2) The inhibition of secreted cytokine was measured in bone marrow-derived macrophages (BMMs) from diseased mice to evaluate the potency of compounds of the invention as described herein. […] To derive bone marrow macrophages, marrow extracted from the femurs and tibias were harvested from Trex1-KO mice was cultured in growth media supplemented with macrophage colony-stimulating factor (M-CSF). Differentiated BMM were harvested and frozen for subsequent experimentation. For treatment with compound C1089 (see Example 13), a frozen stock of Trex1-KO BMM was thawed and 1×10^5 cells were plated in 96 well format. BMMs were treated with a dilution series of C1089 and incubated overnight at 37° C. 5% CO2, at which point cellular supernatants were harvested and stored at −80° C. for subsequent analysis. The media used for this dilution series was without FBS. Remaining cells were evaluated for viability using Cell Titer Glo 2.0 kit according to the manufacturer instructions. BMM supernatants were evaluated for the secreted cytokine […] (RANTES/CCL5) or for secreted cytokine monocyte chemoattractant protein 1 (MCP-1/CCL2) using cytometric bead array mouse Flex Set kits (BD Biosciences). Cytokine concentration was calculated from a standard curve and normalized to vehicle (DMSO) treated cells.

[4] = tested on: MCP-1/CCL2 secretion by Trex1-KO BMM; assay: Inhibition of MCP-1/CCL2 secretion by Trex1-KO bone marrow-derived macrophages; format: cell-based, mice; set-up: key to BMM IC50 M (MCP-1): A: an IC50 value less than 5 μM; B: an IC50 value between 5 and 20 μM; where an IC50 value could not be calculated from the data; details: MCP-1 secretion; for IC50: Mus musculus, Macrophage, read-out: BMM IC50 M (MCP-1)
Procedure: as §1, §2

Human cGAS amino acids 155-522, sequence (Q8N884 157-522): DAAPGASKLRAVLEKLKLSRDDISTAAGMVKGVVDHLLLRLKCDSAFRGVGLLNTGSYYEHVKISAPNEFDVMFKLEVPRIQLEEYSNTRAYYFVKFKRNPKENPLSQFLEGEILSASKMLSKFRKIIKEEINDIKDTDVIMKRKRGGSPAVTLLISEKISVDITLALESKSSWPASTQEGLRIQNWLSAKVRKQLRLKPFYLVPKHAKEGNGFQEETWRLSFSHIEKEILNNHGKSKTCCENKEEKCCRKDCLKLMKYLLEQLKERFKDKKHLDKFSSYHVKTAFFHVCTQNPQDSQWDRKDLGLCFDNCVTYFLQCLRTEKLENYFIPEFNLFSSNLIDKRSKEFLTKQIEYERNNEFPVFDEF

With Cc1[nH]c2c(-c3ccccc3)c(C(F)(F)F)nn2c(=O)c1-c1nc2c(OCC3CC3)cccc2o1 [Compound C1045, 6-(4-(cyclopropylmethoxy)benzo[d]oxazol-2-yl)-5-methyl-3-phenyl-2-(trifluoromethyl)pyrazolo[1,5-a]pyrimidin-7(4H)-one] the IC50 [1] was < 20 µM, the IC50 [2] was < 20 µM and the IC50 [3] was 5 to 20 µM. For the same molecule, the “BMM IC50 M (MCP-1)” value [4] was “C”.
COc1cc(C)cc2oc(-c3c(C)[nH]c4c(-c5ccccc5)c(C(F)(F)F)nn4c3=O)nc12 [Compound C1098, 6-(4-methoxy-6-methylbenzo[d]oxazol-2-yl)-5-methyl-3-phenyl-2-(trifluoromethyl)pyrazolo[1,5-a]pyrimidin-7(4H)-one] was tested, and the IC50 [1] was < 20 µM, the IC50 [2] was < 20 µM and the IC50 [3] was < 5 µM. For the same molecule, the IC50 [4] was 5 to 20 µM.
For COc1cccc2oc(-c3c(C)[nH]c4c(-c5cccc(F)c5)c(C(F)(F)F)nn4c3=O)nc12 [Compound C1114, 3-(3-fluorophenyl)-6-(4-methoxybenzo[d]oxazol-2-yl)-5-methyl-2-(trifluoromethyl)pyrazolo[1,5-a]pyrimidin-7(4H)-one], the IC50 [1] was < 20 µM, the IC50 [2] was < 20 µM and the “BMM IC50 R (RANTES)” value [3] was “C”. For the same molecule, the IC50 [4] was 5 to 20 µM.
For COc1cccc2oc(-c3c(COCc4ccccc4)[nH]c4c(-c5ccccc5)c(C(F)(F)F)nn4c3=O)nc12 [Compound C1099, 5-((benzyloxy)methyl)-6-(4-methoxybenzo[d]oxazol-2-yl)-3-phenyl-2-(trifluoromethyl)pyrazolo[1,5-a]pyrimidin-7(4H)-one], the IC50 [1] was < 20 µM, the IC50 [2] was < 20 µM and the “BMM IC50 R (RANTES)” value [3] was “C”. For the same molecule, the “BMM IC50 M (MCP-1)” value [4] was “C”.
COc1cc(N)cc2oc(-c3c(C)[nH]c4c(-c5ccccc5)c(C#N)nn4c3=O)nc12 [Compound C1175, 6-(6-amino-4-methoxybenzo[d]oxazol-2-yl)-5-methyl-7-oxo-3-phenyl-4,7-dihydropyrazolo[1,5-a]pyrimidine-2-carbonitrile] was tested, and the IC50 [1] was < 20 µM, the IC50 [2] was 20 to 100 µM and the “BMM IC50 R (RANTES)” value [3] was “C”. For the same molecule, the “BMM IC50 M (MCP-1)” value [4] was “C”.
In the case of COc1cc(Br)cc(NC(=O)c2c(C)[nH]c3c(-c4ccccc4)c(C(F)(F)F)nn3c2=O)c1 [Compound A1129, N-(3-bromo-5-methoxyphenyl)-5-methyl-7-oxo-3-phenyl-2-(trifluoromethyl)-4,7-dihydropyrazolo[1,5-a]pyrimidine-6-carboxamide], the IC50 [1] is reported as < 20 µM, the IC50 [2] is reported as 20 to 100 µM and the “BMM IC50 R (RANTES)” value [3] is reported as “C”. It also gave an IC50 [4] of 5 to 20 µM.
COc1cccc2oc(-c3c(C)[nH]c4c(-c5cc(F)cc(F)c5)c(C(F)(F)F)nn4c3=O)nc12 [Compound C1119, 3-(3,5-difluorophenyl)-6-(4-methoxybenzo[d]oxazol-2-yl)-5-methyl-2-(trifluoromethyl)pyrazolo[1,5-a]pyrimidin-7(4H)-one] was tested, and the IC50 [1] was < 20 µM, the IC50 [2] was < 20 µM and the “BMM IC50 R (RANTES)” value [3] was “C”. The “BMM IC50 M (MCP-1)” value [4] was “C”.
COc1cc(Cl)cc2oc(-c3c(C)[nH]c4c(-c5ccccc5)c(C(F)(F)F)nn4c3=O)nc12 [Compound C1105, 6-(6-chloro-4-methoxybenzo[d]oxazol-2-yl)-5-methyl-3-phenyl-2-(trifluoromethyl)pyrazolo[1,5-a]pyrimidin-7(4H)-one] was tested, and the IC50 [1] was < 20 µM, the IC50 [2] was < 20 µM and the IC50 [3] was < 5 µM. The IC50 [4] was 5 to 20 µM.
Cc1[nH]c2c(-c3ccccc3)c(C(F)(F)F)nn2c(=O)c1-c1nc2c(OCc3ccccc3)cccc2o1 [Compound C1073, 6-(4-(benzyloxy)benzo[d]oxazol-2-yl)-5-methyl-3-phenyl-2-(trifluoromethyl)pyrazolo[1,5-a]pyrimidin-7(4H)-one] was tested, and the IC50 [1] was < 20 µM, the IC50 [2] was < 20 µM and the “BMM IC50 R (RANTES)” value [3] was “C”. The “BMM IC50 M (MCP-1)” value [4] was “C”.
In the case of COc1cccc2oc(-c3c(COC4CCCCO4)[nH]c4c(-c5ccccc5)c(C(F)(F)F)nn4c3=O)nc12 (stereo not shown) [Compound C1134, 6-(4-methoxybenzo[d]oxazol-2-yl)-3-phenyl-5-(((tetrahydro-2H-pyran-2-yl)oxy)methyl)-2-(trifluoromethyl)pyrazolo[1,5-a]pyrimidin-7(4H)-one], the IC50 [1] is reported as < 20 µM, the IC50 [2] is reported as < 20 µM and the “BMM IC50 R (RANTES)” value [3] is reported as “C”. For the same molecule, the IC50 [4] was 5 to 20 µM.
